Results from patent US11248020B2, “Oligonucleotide compositions and methods for treating diseases” (priority 2017, dated 2022).

Legend:
[1] = system: Alzheimer's Disease; assay: Alzheimer's disease patients scored by MMSE and ADAScog; format: in vivo, human; conditions: average values per group
Method: In the first control group, the patients received conventional therapy, i.e., a reversible, noncompetitive glutamate receptors antagonist Memantine (10 mg per day). In the second control group the patients received placebo. Test group #4, and Test group #5 received compositions #4 and 5, respectively, in the form of extended release sublingual tablets (also comprising 12% hypromellose; 10% lactose monohydrate; 60% carbopol; 8% Polycarbophil; 10% starch-based gel) used 2 time a day. The patients were scored according to MMSE (Mini-Mental State Examination) and ADAScog (assessment of cognitive impairment) scales. 12 groups of 4 people were formed.

[2] = system: colon cancer; assay: Azoxymethane colon cancer model in rats after total colectomy: recurrences, metastases, survival; format: in vivo, male albino Wistar rats
Method: The studies were performed in male albino Wistar rats (Rappolovo breeding nursery), aged 14 weeks, weighing 180-190 g. Prior to the study period, animals (n=600) were kept in identical conditions, and received the same diet. For modeling colon cancer, the animals received Azoxymethane (Sigma) in the amount of 10 mg/kg (in 0.9% NaCl) for 12 weeks. In 26 weeks, the abdomen of anesthetized animals was opened, and the presence and size of colon tumors and metastases was visually assessed. Animals bearing neoplasms of more than 3 mm in diameter and having no observed metastases (360 animals) were subjected to total colectomy. In 2 days after surgery, mono- and/or oligonucleotide mixtures were administered either parenterally (via IV) or enterally (with drinking water). Each group consisted of 20 animals. In 8 weeks, surviving animals were sacrificed (animals were randomized into groups with 10 surviving animals per group), and the recurrence rates and presence of metastases was evaluated.
Enteral Administration The first control group received no treatment. Test group #1, Test group #2, Test group #3, Test group #4, Test group #5, and Test group #6 received mixtures of mono- and/or oligonucleotides (from 1 to 100,000 mcg/kg/day) prepared with the use of different nucleases, as specified in Table 2, below:
The first control group received no treatment. The second control group received conventional therapy consisting of 5-fluorouracil (5 mg/kg/day). Test group #1, Test group #2, Test group #3, Test group #4, and Test group #5 were administered (from 1 to 100,000 mcg/kg/day for 30 days).

[3] = enteral administration (with drinking water), evaluated in 8 weeks
[4] = parenteral administration (via IV), 30 days

Structure (SMILES) | Patients score ADAScog ([1]; in 30 days) | Patients score MMSE ([1]; in 30 days) | Patients score ADAScog ([1]; in 90 days) | Patients score MMSE ([1]; in 90 days) | Patients score ADAScog ([1]; pre-treatment) | Patients score MMSE ([1]; pre-treatment) | No. of animals in the group with recurrences or metastases [2, 3] | No. of animals with metastasis [2, 3] | No. of surviving animals/Total No. per group ([2]; enteral administration (with drinking water), in 8 weeks) | No. of animals in the group with recurrences or metastases [2, 4] | No. of animals with metastasis [2, 4] | No. of surviving animals/Total No. of animals per group [2, 4]
CC12CC3CC(C)(C1)CC(N)(C3)C2 [1st control group, Memantine] | 37 | 15 | 37 | 16 | 41 | 13 |  |  |  |  |  | 
O=c1[nH]cc(F)c(=O)[nH]1 [2nd control, 5-fluorouracil] |  |  |  |  |  |  | 4 | 7 | 13/20 | 4 | 6 | 14/20
